Reference: patent US20240327364A1, “THERAPEUTIC TARGETING OF GPR68 TO INDUCE FERROPTOSIS” (University Of Maryland, Baltimore, priority 2023, published 2024)

How the values were obtained:
CXCR5 = target: T1, CXCR5 (Homo sapiens, UniProt P32302); assay: GPCR Profiler; type: cell-based
T1 construct: host or cells: Chem-1 cells with Gα15

MET(Y1235D) = target: T2, MET(Y1235D) (Homo sapiens, UniProt P08581, Y1235D); assay: KinomeScan; type: binding; details: read-out: % Control
T2 construct: purchased DiscoveRx

BIKE = target: T3, BIKE (Homo sapiens, UniProt Q9NSY1); assay: KinomeScan; type: binding; details: read-out: % Control
T3 construct: purchased DiscoveRx (Fremont, CA)

[1] = target: T4, RSK2(Kin.Dom.1-N-terminal) (Homo sapiens, UniProt P51812); assay: KinomeScan; type: binding; details: read-out: % Control
T4 construct: RSK2(Kin.Dom.1-N-terminal); purchased DiscoveRx (Fremont, CA)
T4 sequence (P51812 68-327 limits assumed): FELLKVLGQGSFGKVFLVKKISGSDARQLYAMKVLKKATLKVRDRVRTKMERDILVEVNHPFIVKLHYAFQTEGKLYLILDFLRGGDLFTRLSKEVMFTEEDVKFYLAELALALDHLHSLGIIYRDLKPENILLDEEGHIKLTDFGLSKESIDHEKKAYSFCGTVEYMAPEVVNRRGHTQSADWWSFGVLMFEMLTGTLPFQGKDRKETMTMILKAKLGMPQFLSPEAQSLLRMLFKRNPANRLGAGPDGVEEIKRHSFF

AURKC = target: T5, AURKC (Homo sapiens, UniProt Q9UQB9); assay: KinomeScan; type: binding; details: read-out: % Control
T5 construct: purchased DiscoveRx (Fremont, CA)

MRCKB = target: T6, MRCKB (Homo sapiens, UniProt Q9Y5S2); assay: KinomeScan; type: binding; details: read-out: % Control
T6 construct: purchased DiscoveRx

[2] = target: T7, ABL1(H396P)-nonphosphorylated (Homo sapiens, UniProt P00519, H396P); assay: KinomeScan; type: binding; details: read-out: % Control
T7 construct: purchased DiscoveRx

ULK2 = target: T8, ULK2 (Homo sapiens, UniProt Q8IYT8); assay: KinomeScan; type: binding; details: read-out: % Control
T8 construct: purchased DiscoveRx

AMPK-alpha2 = target: T9, AMPK-alpha2 (Homo sapiens, UniProt P54646); assay: KinomeScan; type: binding; details: read-out: % Control
T9 construct: purchased DiscoveRx (Fremont, CA)

CCR2B = target: T10, CCR2B (Homo sapiens, UniProt P41597); assay: GPCR Profiler; type: cell-based
T10 construct: host or cells: Chem-1 cells with Gα15
T10 sequence (P41597 1-360 isoform P41597-2): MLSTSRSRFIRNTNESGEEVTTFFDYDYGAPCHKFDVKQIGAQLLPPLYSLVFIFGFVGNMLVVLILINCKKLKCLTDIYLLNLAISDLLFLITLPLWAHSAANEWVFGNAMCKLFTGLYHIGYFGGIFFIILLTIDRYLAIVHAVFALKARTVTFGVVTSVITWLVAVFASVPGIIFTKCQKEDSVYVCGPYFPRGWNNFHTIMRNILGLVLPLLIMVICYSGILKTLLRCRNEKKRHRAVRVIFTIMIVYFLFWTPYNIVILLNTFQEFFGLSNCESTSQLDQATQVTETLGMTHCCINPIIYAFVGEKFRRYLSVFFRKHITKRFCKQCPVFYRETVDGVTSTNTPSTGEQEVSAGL

PRP = target: T11, PRP (Homo sapiens, UniProt P49683); assay: GPCR Profiler; type: cell-based
T11 construct: host or cells: Chem-1 cells with Gα15
T11 sequence (P49683 whole entry): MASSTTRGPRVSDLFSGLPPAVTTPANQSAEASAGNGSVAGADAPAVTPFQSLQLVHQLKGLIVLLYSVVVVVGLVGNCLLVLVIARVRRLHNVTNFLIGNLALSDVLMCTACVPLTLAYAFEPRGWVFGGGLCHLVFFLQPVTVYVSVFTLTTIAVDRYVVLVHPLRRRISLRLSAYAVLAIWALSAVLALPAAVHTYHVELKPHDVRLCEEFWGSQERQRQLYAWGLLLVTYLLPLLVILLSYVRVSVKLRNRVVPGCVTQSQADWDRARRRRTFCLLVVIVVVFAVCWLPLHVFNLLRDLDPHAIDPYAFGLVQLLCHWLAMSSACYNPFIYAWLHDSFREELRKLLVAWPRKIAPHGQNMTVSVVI
Description: (§1) GPCR profiling assays were performed by Millipore (St. Louis, MO) using in cells expressing Gα15, a promiscuous G protein that enhances GPCR coupling to downstream Ca2+ signaling pathways. KinomeScan was conducted by DiscoveRx (Fremont, CA).
(§2) To identify the target of OGM1, the molecule was profiled for binding in a panel of 442 kinases (KinomeScan™, DiscoveRx™) and assessed its activity against 158 GPCRs in a single-point assay in Chem-1 cells that uses a promiscuous Gα15 protein to trigger calcium flux (see Table 9 and Table 10, below). […] Table 9. KinomeScan (DiscoverRx) profiling of OGM1.

5-HT2A = target: T12, 5-HT2A (Homo sapiens, UniProt P28223); assay: GPCR Profiler; type: cell-based
T12 construct: host or cells: Chem-1 cells with promiscuous Gα15
T12 sequence (P28223 whole entry): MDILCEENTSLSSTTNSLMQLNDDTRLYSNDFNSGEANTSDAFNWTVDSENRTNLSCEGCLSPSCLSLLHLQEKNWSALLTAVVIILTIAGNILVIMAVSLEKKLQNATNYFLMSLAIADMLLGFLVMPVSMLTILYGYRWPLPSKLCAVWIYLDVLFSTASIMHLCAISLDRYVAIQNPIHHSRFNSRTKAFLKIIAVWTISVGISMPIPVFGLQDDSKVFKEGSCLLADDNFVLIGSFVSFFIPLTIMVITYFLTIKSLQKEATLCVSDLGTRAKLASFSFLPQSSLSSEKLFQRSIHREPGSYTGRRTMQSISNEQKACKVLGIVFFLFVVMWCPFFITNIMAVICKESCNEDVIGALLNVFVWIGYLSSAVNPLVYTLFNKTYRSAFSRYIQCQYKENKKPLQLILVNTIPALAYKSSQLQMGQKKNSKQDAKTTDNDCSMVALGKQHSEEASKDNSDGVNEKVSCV
Description: as §1, §2

BRAF(V600E) = target: T13, BRAF(V600E) (Homo sapiens, UniProt P15056, V600E); assay: KinomeScan; type: binding; details: read-out: % Control
T13 construct: purchased DiscoveRx (Fremont, CA)

STK36 = target: T14, STK36 (Homo sapiens, UniProt Q9NRP7); assay: KinomeScan; type: binding; details: read-out: % Control
T14 construct: purchased DiscoveRx (Fremont, CA)

NK3 = target: T15, NK3 (Homo sapiens, UniProt P29371); assay: GPCR Profiler; type: cell-based
T15 construct: host or cells: Chem-1 cells expressing Gα15
T15 sequence (P29371 whole entry): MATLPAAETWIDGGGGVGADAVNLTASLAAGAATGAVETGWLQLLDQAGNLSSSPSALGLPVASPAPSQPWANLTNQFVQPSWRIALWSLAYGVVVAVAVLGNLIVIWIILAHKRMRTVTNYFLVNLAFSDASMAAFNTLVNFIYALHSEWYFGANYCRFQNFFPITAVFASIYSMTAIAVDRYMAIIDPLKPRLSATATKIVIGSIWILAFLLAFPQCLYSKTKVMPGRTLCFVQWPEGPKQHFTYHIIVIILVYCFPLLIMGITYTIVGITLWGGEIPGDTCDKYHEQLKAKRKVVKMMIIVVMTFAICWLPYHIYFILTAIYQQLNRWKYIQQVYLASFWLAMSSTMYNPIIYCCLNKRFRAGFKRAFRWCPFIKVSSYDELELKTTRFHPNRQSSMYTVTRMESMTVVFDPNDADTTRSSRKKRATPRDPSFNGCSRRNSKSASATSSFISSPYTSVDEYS

PIK3CA(I800L) = target: T16, PIK3CA(I800L) (Homo sapiens, UniProt P42336, I800L); assay: KinomeScan; type: binding; details: read-out: % Control
T16 construct: purchased DiscoveRx (Fremont, CA)

NK1 = target: T17, NK1 (Homo sapiens, UniProt P25103); assay: GPCR Profiler; type: cell-based
T17 construct: host or cells: Chem-1 cells expressing Gα15
T17 sequence (P25103 whole entry): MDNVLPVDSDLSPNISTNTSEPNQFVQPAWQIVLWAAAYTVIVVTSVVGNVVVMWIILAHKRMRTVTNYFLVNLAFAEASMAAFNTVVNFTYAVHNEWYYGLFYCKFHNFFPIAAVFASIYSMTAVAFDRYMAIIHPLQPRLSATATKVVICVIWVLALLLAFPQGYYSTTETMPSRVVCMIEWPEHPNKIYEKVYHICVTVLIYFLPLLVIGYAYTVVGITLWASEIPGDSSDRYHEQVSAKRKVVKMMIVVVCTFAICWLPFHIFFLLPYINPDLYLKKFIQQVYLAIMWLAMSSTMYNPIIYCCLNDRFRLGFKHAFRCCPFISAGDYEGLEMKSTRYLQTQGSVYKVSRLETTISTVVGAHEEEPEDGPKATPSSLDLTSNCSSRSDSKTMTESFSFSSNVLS

PLK1 = target: T18, PLK1 (Homo sapiens, UniProt P53350); assay: KinomeScan; type: binding; details: read-out: % Control
T18 construct: purchased DiscoveRx (Fremont, CA)

KIT(L576P) = target: T19, KIT(L576P) (Homo sapiens, UniProt P10721, L576P); assay: KinomeScan; type: binding; details: read-out: % Control
T19 construct: purchased DiscoveRx

PRKCI = target: T20, PRKCI (Homo sapiens, UniProt P41743); assay: KinomeScan; type: binding; details: read-out: % Control
T20 construct: purchased DiscoveRx (Fremont, CA)

AMPK-alpha1 = target: T21, AMPK-alpha1 (Homo sapiens, UniProt Q13131); assay: KinomeScan; type: binding; details: read-out: % Control
T21 construct: purchased DiscoveRx (Fremont, CA)
T21 sequence (Q13131 whole entry): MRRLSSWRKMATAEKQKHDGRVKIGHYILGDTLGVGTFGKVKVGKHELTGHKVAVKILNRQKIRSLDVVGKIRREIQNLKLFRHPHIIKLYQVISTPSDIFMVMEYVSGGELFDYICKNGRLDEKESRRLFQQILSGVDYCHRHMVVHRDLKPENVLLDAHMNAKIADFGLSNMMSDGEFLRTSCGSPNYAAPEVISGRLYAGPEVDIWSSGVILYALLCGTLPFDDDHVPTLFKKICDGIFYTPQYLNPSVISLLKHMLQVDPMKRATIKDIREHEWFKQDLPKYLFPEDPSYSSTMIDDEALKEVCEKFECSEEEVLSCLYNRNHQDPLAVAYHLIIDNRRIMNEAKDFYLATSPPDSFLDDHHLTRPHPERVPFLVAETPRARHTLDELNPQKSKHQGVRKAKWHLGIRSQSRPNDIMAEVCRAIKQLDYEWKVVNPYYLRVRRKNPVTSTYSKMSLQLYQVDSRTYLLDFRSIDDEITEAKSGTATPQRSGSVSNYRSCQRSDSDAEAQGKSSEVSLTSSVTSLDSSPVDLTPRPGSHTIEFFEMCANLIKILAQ

C5aR = target: T22, C5aR (Homo sapiens, UniProt P21730); assay: GPCR Profiler; type: cell-based
T22 construct: host or cells: Chem-1 cells with promiscuous Gα15
T22 sequence (P21730 whole entry, species assumed): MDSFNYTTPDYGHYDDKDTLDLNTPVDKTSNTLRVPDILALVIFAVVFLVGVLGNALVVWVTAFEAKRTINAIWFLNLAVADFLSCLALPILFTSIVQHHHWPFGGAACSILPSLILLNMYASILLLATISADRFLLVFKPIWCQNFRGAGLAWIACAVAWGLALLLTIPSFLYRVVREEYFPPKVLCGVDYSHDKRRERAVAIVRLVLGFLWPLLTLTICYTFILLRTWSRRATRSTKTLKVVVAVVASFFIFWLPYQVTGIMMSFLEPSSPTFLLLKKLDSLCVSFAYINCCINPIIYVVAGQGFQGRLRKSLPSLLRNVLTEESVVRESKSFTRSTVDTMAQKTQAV

DYRK1A = target: T23, DYRK1A (Homo sapiens, UniProt Q13627); assay: KinomeScan; type: binding; details: read-out: % Control
T23 construct: purchased DiscoveRx (Fremont, CA), KinomeScan service

CCR3 = target: T24, CCR3 (Homo sapiens, UniProt P51677); assay: GPCR Profiler; type: cell-based
T24 construct: host or cells: Chem-1 cells with Gα15
T24 sequence (P51677 whole entry, species assumed): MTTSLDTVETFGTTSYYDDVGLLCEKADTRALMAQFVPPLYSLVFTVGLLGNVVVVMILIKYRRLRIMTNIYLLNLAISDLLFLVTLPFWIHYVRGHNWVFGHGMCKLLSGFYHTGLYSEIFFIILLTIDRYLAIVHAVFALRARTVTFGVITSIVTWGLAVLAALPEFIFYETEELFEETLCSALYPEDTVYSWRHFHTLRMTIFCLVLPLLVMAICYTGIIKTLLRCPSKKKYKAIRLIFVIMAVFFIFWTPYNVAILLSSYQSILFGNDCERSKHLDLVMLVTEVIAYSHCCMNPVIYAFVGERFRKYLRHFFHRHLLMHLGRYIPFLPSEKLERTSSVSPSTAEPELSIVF

S6K1 = target: T25, S6K1 (Homo sapiens, UniProt P23443); assay: KinomeScan; type: binding; details: read-out: % Control
T25 construct: purchased DiscoveRx (Fremont, CA)

TAOK3 = target: T26, TAOK3 (Homo sapiens, UniProt Q9H2K8); assay: KinomeScan; type: binding; details: read-out: % Control
T26 construct: purchased DiscoveRx (Fremont, CA)

NMU1 = target: T27, NMU1 (Homo sapiens, UniProt Q9HB89); assay: GPCR Profiler; type: cell-based
T27 construct: host or cells: Chem-1 cells expressing Gα15
T27 sequence (Q9HB89 whole entry): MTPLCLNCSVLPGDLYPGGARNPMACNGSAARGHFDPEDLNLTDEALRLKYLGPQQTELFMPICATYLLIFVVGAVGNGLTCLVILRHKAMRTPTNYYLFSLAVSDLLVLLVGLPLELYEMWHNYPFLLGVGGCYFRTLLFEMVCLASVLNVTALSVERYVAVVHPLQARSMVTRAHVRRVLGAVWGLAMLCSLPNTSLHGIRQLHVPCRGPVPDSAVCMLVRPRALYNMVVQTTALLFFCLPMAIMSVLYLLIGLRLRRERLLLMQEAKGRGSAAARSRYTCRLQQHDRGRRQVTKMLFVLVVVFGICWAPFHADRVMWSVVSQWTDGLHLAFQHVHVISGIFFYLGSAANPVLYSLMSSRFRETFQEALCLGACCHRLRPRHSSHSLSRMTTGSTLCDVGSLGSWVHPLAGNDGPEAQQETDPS

GSK3A = target: T28, GSK3A (Homo sapiens, UniProt P49840); assay: KinomeScan; type: binding; details: read-out: % Control
T28 construct: purchased DiscoveRx (Fremont, CA)

CXCR6 = target: T29, CXCR6 (Homo sapiens, UniProt O00574); assay: GPCR Profiler; type: cell-based
T29 construct: host or cells: Chem-1 cells with Gα15
T29 sequence (O00574 whole entry, species assumed): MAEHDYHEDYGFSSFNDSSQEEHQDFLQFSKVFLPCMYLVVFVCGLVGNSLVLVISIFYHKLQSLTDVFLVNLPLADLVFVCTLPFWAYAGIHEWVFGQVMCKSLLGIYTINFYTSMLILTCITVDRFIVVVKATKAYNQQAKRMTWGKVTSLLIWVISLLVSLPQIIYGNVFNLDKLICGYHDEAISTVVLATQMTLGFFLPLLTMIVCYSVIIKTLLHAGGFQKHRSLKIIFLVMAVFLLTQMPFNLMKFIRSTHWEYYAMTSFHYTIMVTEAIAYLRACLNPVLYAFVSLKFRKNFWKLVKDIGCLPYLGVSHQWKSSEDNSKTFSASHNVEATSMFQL

DRAK2 = target: T30, DRAK2 (Homo sapiens, UniProt O94768); assay: KinomeScan; type: binding; details: read-out: % Control
T30 construct: purchased DiscoveRx (Fremont, CA), KinomeScan service

PFTK1 = target: T31, PFTK1 (Homo sapiens, UniProt O94921); assay: KinomeScan; type: binding; details: read-out: % Control
T31 construct: purchased DiscoveRx (Fremont, CA)

MAP3K3 = target: T32, MAP3K3 (Homo sapiens, UniProt Q99759); assay: KinomeScan; type: binding; details: read-out: % Control
T32 construct: purchased DiscoveRx (Fremont, CA)

RIPK5 = target: T33, RIPK5 (Homo sapiens, UniProt Q6XUX3); assay: KinomeScan; type: binding; details: read-out: % Control
T33 construct: purchased DiscoveRx (Fremont, CA)

T1 sequence (P32302 whole entry, species assumed): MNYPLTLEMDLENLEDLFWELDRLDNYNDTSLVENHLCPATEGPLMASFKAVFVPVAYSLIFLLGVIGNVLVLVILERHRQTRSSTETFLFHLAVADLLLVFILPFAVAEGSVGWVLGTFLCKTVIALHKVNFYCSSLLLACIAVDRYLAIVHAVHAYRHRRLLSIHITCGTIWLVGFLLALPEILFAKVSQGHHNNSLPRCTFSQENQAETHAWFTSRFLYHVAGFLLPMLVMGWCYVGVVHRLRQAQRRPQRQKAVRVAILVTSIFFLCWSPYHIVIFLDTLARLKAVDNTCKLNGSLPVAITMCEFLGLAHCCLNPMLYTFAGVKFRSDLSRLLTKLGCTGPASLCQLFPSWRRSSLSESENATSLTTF

CCc1ccc2c(c1)C1(NN=C(c3cccc4ccccc34)S1)C(=O)N2 (stereo not shown) [OGM1, 5-ethyl-5′-naphthalen-1-ylspiro[1H-indole-3,2′-3H-1,3,4-thiadiazole]-2-one]
Antagonism (CXCR5; 10 uM): −2 | Agonism (CXCR5; 12.5 uM): 0.9 | remaining binding at 10 µM (MET(Y1235D)): 100% | remaining binding at 10 µM (BIKE): 88% | remaining binding at 10 µM [1]: 95% | remaining binding at 10 µM (AURKC): 100% | remaining binding at 10 µM (MRCKB): 100% | remaining binding at 10 µM [2]: 88% | remaining binding at 10 µM (ULK2): 100% | remaining binding at 10 µM (AMPK-alpha2): 100% | Antagonism (CCR2B; 10 uM): 0.7 | Agonism (CCR2B; 12.5 uM): 0.7 | Antagonism (PRP; 10 uM): −11.1 | Agonism (PRP; 12.5 uM): −0.3 | Antagonism (5-HT2A; 10 uM): −12.3 | Agonism (5-HT2A; 12.5 uM): 1.2 | remaining binding at 10 µM (BRAF(V600E)): 94% | remaining binding at 10 µM (STK36): 100% | Antagonism (NK3; 10 uM): −3 | Agonism (NK3; 12.5 uM): 0.5 | remaining binding at 10 µM (PIK3CA(I800L)): 100% | Antagonism (NK1; 10 uM): −1.4 | Agonism (NK1; 12.5 uM): −1.5 | remaining binding at 10 µM (PLK1): 100% | remaining binding at 10 µM (KIT(L576P)): 82% | remaining binding at 10 µM (PRKCI): 94% | remaining binding at 10 µM (AMPK-alpha1): 100% | Antagonism (C5aR; 10 uM): −0.7 | Agonism (C5aR; 12.5 uM): 3.1 | remaining binding at 10 µM (DYRK1A): 39% | Antagonism (CCR3; 10 uM): −9.9 | Agonism (CCR3; 12.5 uM): 0.8 | remaining binding at 10 µM (S6K1): 93% | remaining binding at 10 µM (TAOK3): 79% | Antagonism (NMU1; 10 uM): 6.2 | Agonism (NMU1; 12.5 uM): 1.8 | remaining binding at 10 µM (GSK3A): 78% | Antagonism (CXCR6; 10 uM): −14 | Agonism (CXCR6; 12.5 uM): 0 | remaining binding at 10 µM (DRAK2): 100% | remaining binding at 10 µM (PFTK1): 92% | remaining binding at 10 µM (MAP3K3): 72% | remaining binding at 10 µM (RIPK5): 56%
